Columns and labels:
Type in all cases: cell-based
[1] = test system: attachment of MCF-7 carcinoma cells to human LECs; test: In vitro human LECs attachment assay (CCL2), MCF-7; settings: 18 hrs.-stimulation of 10 ng/mL CCL2 vs negative control with DMEM/F12; p<0.01
Experimental: (§1) The human LECs were plated to form a monolayer on type I collagen-coated 35 mm plates and incubated to confluence in 5% O2, 5% CO2, and 90% N2 at 37° C. The LECs were kept in serum-starved medium containing EBM-2 with 3% FBS. Selected plates were treated with 10 ng/mL CCL2 for 18 hrs. In some experiments, the plates were stimulated by the serum-starved medium pretreated with neutralization of 10 ng/mL CCL2 with 1.0 μg/mL CCL2 specific antibody.
(§2) In some experiments, the plates were also treated with anti-human ICAM-1 antibody (available from R&D systems, US) for 30 min. after the 18 hrs. treatment with 10 ng/mL CCL2.
(§3) The two kinds of the breast carcinoma cells such as MDA-MB-231 and MCF-7 stained with PKH26 fluorescent dye (available from SIGMA, US) were then plated at 1×10^5 cells per plate and incubated for 30 min. at 37° C. Unbound cells were removed by aspiration, and the plates were washed with EBM-2 three times. The attachment of the carcinoma cells was quantified by counting the number of cells under ×100 magnification using a Leica microscope.

[2] = test system: attachment of MDA-MB-231 carcinoma cells to human LECs; test: In vitro human LECs attachment assay (CCL2), MDA-MB-231; settings: 18 hrs.-stimulation of 10 ng/mL CCL2 vs negative control with DMEM/F12; p<0.01
Experimental: as §1, §2, §3

[3] = test system: ICAM-1 mRNA in human LECs; test: Quantitative RT-PCR of ICAM-1 mRNA in human LECs
Experimental: The 0 hr., 1 hr., 4 hrs. and 18 hrs. expressions of ICAM-1 mRNA were evaluated by quantitative reverse transcription polymerase chain reaction (RT-PCR) for ICAM-1 cDNA. The total RNA was extracted from the cultured human LECs using ISOGEN reagent (available from Nippon Gene Co., Ltd., Japan) according to the manufacturer's instructions. The concentration of each RNA was calculated using 260 nm absorbance with a spectrophotometer. The extracted RNA was reverse-transcribed with M-MLV reverse transcriptase (available from Ambion Inc., US). For RT-PCR analysis, each superscript first-strand synthesis kit (available from Invitrogen Corporation, US) was used with 1.0 μg of the total RNA. Forward and reverse primers of ICAM-1 and cyclophilin A were used for each specific probe, respectively as follows; ICAM-1 (available from TAKARA BIO INC., Japan), and cyclophilin A:
The cDNA was diluted 5-fold prior to PCR amplification. Quantitative RT-PCR was performed using a LIGHT CYCLER rapid thermal cycler system (available from Roche Diagnostics Limited, UK). Reactions were performed in a 20 μL volume with 0.5 μM primers, TAQ DNA POLYMERASE, and the buffer was included in the SYBR PREMIX EX TAQ (available from TAKARA BIO INC., Japan; SYBR is a registered trademark). The PCR protocol included 10 secs. of denaturation step followed by 45 cycles of 95° C. denaturation for 5 secs. and 60° C. annealing for 20 secs. The fluorescent product was detected at the end of the 72° C. extension period. Negative controls included PCR reactions with cDNA omitted. To confirm amplification specificity, PCR products from each primer pair were subjected to melting curve analysis. Quantification data was analyzed with LIGHT CYCLER analysis software. The results are presented as normalized ratio of the expression of ICAM-1 mRNA to cyclophilin A.

## CCL2: chemokine CCL2
[1]
  in vitro attachment of MCF-7 to human LECs: significant increase
[2]
  in vitro attachment of MDA-MB-231 to human LECs: significant increase
[3]; 10 ng/mL CCL2, 1 hr. after the stimulation
  expression of ICAM-1 mRNA (ratio to cyclophilin A): significantly increased
[3]; 10 ng/mL CCL2, around 4 hrs. after the stimulation
  expression of ICAM-1 mRNA (ratio to cyclophilin A): maximal level
[3]; 10 ng/mL CCL2, up to 18 hrs. after the stimulation
  expression of ICAM-1 mRNA (ratio to cyclophilin A): increased slightly
